Consider two molecules from patent US8026218B2, “Bifunctional analgesic compounds for opioid receptor agonists and neurokinin-1 receptor antagonists” (The University of Arizona, priority 2006, dated 2011).

One assay concerns μ opioid receptors (GPI). In words: Guinea pig isolated ileum (GPI) assay, opioid agonist.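 Note: inhibition of electrically evoked contractions (0.1 Hz, 0.4 msec, supramaximal voltage) in organ baths at 37 °C, contraction height 3 min after each cumulative dose versus the 1 min before dosing.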
Assay [1] deals with T1, rat μ opioid receptors (rMOR) (Rattus norvegicus, UniProt P33535).
T1 construct: expressed in transfected cells; host or cells: HN9.10 neuroblastoma cell line, pCDNA3, neomycin-selected clones
T1 sequence (P33535 whole entry): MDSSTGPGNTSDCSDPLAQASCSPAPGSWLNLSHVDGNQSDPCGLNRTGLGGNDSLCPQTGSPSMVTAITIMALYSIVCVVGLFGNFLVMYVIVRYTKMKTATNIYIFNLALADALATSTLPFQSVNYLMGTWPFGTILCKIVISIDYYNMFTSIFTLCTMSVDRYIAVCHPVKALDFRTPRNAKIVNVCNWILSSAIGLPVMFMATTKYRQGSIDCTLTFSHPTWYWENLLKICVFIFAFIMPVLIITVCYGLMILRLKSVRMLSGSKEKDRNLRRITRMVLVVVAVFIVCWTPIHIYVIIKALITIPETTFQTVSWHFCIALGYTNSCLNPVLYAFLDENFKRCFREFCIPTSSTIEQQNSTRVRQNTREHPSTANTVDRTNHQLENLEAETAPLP
The experiment in a line: biochemical. In kind it is biochemical.

The target in a further assay is T2, rat NK1 (rNK1) receptor (Rattus norvegicus, UniProt P14600).
T2 construct: expressed in transfected cells; host or cells: CHO (rNK-1/CHO cell line from Dr. James Krause)
T2 sequence (P14600 whole entry): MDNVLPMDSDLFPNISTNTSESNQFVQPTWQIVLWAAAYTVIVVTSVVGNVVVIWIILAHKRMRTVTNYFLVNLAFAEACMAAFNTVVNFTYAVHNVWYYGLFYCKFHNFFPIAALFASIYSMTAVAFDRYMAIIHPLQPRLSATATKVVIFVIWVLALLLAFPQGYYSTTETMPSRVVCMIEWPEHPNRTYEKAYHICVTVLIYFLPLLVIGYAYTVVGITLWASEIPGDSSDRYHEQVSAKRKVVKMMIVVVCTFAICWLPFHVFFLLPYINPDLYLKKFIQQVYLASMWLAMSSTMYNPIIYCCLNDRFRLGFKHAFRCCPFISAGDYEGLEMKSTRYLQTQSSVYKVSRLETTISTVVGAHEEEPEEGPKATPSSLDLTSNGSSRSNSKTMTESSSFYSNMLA
The experiment in a line: Radioligand competition binding, [3H]substance P, rNK1/CHO membranes. Background: In a radioligand displacement assay an active substance lowers the binding of a labelled ligand.

In assay [2] the target is T3, Substance P receptors (guinea pig NK1) (Cavia porcellus, UniProt P30547).
T3 construct: from tissue; host or cells: guinea pig (Hartley) ileum LMMP, 1 μM naloxone present
T3 sequence (P30547 whole entry): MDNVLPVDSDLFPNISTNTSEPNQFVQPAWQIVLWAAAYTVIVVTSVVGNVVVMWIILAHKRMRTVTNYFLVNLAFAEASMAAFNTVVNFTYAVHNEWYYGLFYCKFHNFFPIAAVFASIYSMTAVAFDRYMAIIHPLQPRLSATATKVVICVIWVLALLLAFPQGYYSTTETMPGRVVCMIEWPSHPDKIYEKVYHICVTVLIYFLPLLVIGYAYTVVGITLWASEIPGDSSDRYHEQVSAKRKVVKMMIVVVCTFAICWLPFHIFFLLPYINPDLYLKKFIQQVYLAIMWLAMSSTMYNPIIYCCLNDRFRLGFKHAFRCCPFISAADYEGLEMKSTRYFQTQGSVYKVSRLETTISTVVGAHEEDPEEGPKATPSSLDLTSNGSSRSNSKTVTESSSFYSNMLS
The experiment in a line: Guinea pig isolated ileum (GPI) assay with substance P stimulation in presence of 1 μM naloxone.
Experimental: Testing stopped at 1 mM concentrations of the test compound.
Analysis of GPI and MVD assays. For opioid data analysis, percentage inhibition was calculated using the average tissue contraction height for 1 min preceding the addition of the agonist divided by the contraction height 3 min after exposure to the dose of agonist. […] IC50 and Emax estimates were determined by computerized nonlinear least-squares analysis (the pharmacological statistics package FlashCalc: Dr. Michael Ossipov, University of Arizona, Tucson, Ariz.). […] A50 values represent the mean of not less than 4 tissues. A50 and Emax estimates were determined by computerized nonlinear least-squares analysis (FlashCalc).

For assay [3], the target named is T1, rat μ opioid receptors (rMOR). In words: Radioligand competition binding, [3H]DAMGO, rMOR membranes.
In assay [4] the target is T4, human δ opioid receptors (hDOR) (Homo sapiens, UniProt P41143).
T4 construct: expressed in transfected cells; host or cells: HN9.10 neuroblastoma cell line, pCDNA3, neomycin-selected clones
T4 sequence (P41143 whole entry): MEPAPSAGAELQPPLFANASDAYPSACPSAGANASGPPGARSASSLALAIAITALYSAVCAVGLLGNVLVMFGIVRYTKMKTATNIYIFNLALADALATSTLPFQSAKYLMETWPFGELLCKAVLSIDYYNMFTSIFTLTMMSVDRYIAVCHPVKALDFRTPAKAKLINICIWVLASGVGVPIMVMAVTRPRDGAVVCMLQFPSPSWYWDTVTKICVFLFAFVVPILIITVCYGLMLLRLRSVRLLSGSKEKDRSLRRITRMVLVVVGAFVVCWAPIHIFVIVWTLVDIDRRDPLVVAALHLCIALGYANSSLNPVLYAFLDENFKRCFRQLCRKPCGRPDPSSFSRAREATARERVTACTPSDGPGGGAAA
In words: Radioligand competition binding, [3H]DPDPE, hDOR membranes.

A further assay addresses T5, δ opioid receptors (MVD) (Mus musculus, UniProt P32300).
T5 construct: from tissue; host or cells: mouse (ICR) isolated vas deferens
The experiment in a line: Mouse isolated vas deferens (MVD) assay, opioid agonist.

Assay [5] has as its target T6, human NK1 receptor (hNK1) (Homo sapiens, UniProt P25103).
T6 construct: expressed in transfected cells
In words: Radioligand competition binding, [3H]-Substance P, hNK1.

In assay [6] the target is T4, human δ opioid receptors (hDOR). The experiment in a line: [35S]GTP-γ-S binding assay, hDOR. In kind it is biochemical.

Where two headings read alike, the source gives them in different places. Peptide text beside a SMILES is read from it.

T5 sequence (P32300 whole entry): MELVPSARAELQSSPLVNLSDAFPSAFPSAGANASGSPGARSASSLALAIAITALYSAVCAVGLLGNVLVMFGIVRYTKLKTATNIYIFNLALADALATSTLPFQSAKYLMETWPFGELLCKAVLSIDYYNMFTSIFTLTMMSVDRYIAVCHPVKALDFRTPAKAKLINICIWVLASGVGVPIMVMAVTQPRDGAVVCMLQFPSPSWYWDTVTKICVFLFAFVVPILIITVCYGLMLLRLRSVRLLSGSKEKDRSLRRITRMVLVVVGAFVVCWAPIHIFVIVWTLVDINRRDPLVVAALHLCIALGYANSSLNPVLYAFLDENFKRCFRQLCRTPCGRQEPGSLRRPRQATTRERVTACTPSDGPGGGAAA
T6 sequence (P25103 whole entry): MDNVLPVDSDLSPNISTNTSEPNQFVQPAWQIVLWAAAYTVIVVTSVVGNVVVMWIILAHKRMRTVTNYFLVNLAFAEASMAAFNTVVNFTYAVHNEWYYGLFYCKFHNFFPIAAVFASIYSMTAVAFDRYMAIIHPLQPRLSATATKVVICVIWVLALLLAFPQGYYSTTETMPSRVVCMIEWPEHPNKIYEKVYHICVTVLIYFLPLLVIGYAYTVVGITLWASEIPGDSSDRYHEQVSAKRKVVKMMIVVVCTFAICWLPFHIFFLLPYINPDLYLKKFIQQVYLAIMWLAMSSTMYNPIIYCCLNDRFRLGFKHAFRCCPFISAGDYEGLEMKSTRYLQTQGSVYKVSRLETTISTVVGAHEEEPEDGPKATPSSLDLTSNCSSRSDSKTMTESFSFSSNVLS

Consider `C[C@@H](NC(=O)[C@@H](N)Cc1ccc(O)cc1)C(=O)N[C@@H](Cc1c[nH]c2ccccc12)C(=O)OCc1cc(C(F)(F)F)cc(C(F)(F)F)c1` [NP43], for which, in the assay with μ opioid receptors (GPI) (Table 36, at 1 μM), the “GPI μ-agonist, % at 1 μM” value amounted to 3.3% at 1 μM. For the same molecule, the EC50 in assay [1] (Table 33, read-out: GTP EC50 (nM) rMOR) was 168 nM; in assay [6] (Table 33, read-out: GTP EC50 (nM) hDOR), 90.9 nM. Further, the Ki on rat NK1 (rNK1) receptor (Ki (nM) rNK1, Table 33) was 2.94 nM; in assay [3] (Table 33, read-out: Ki (nM) rMOR) it was 178 nM; in [4] (Table 33, read-out: Ki (nM) hDOR), 100 nM; in assay [5] it was 0.004 nM. Moreover, the Kb in assay [2] (GPI SP-antagonist Ke (nM), Table 36) is 49.4 nM. The “MVD δ-agonist, % at 1 μM” value on δ opioid receptors (MVD) (Table 36, at 1 μM) came out at 5.5% at 1 μM.
In the case of `CC(C)C[C@H](NC(=O)[C@@H]1CCCN1C(=O)CNC(=O)[C@H](Cc1ccccc1)NC(=O)CNC(=O)[C@@H](C)NC(=O)[C@@H](N)Cc1ccc(O)cc1)C(=O)N[C@@H](Cc1c[nH]c2ccccc12)C(=O)OCc1cc(C(F)(F)F)cc(C(F)(F)F)c1` [TY006, H-Tyr-D-Ala-Gly-Phe-Gly-Pro-Leu-Trp-O-3,5-Bzl(CF3)2] (HELM PEPTIDE1{Y.[dA].G.F.G.P.L.W.[FC(F)(F)c1cc(CO[*:1])cc(C(F)(F)F)c1]}$$$$V2.0), the IC50 in the assay with μ opioid receptors (GPI) (Table 28, read-out: GPI/LMMP Opioid(m) Agonist (IC50; nM)) came out at 384 nM; in the assay with μ opioid receptors (GPI) (Table 39, read-out: GPI/LMMP opioid(mu) agonist (IC50; nM)) it was 384 nM; in the assay with μ opioid receptors (GPI) (electrically stimulated isolated tissue, read-out: GPI (μ), IC50) it was 384 nM; at rat NK1 (rNK1) receptor (IC50, rNK1, Substance P radioligand, membranes from transfected CHO cells), 15.6 nM; in assay [2], 5.4 nM; at δ opioid receptors (MVD), 172 ± 26 nM. Moreover, the IC50 on δ opioid receptors (MVD) (Table 28, read-out: MVD Opioid (d) Agonist (IC50; nM)) was 172 nM; at δ opioid receptors (MVD) (Table 39, read-out: MVD opioid(delta) agonist (IC50; nM)), 172 nM; on δ opioid receptors (MVD) (electrically stimulated isolated tissue, read-out: MVD (δ), IC50) it was 171 nM. In assay [1], the “LogEC50, rMOR, [35S]GTP-γ-S binding” value is recorded as −7.38 ± 0.20. In addition, the EC50 in assay [1] (Table 27, read-out: GTP binding rMOR EC50) was determined as 41.7 nM; in [1] (Table 39, read-out: GTP binding rMOR EC50) it was 41.7 nM; in [1] (read-out: EC50, rMOR, [35S]GTP-γ-S binding), 41.7 nM; in assay [6] (Table 27, read-out: GTP binding hDOR EC50), 50.2 nM; in assay [6] (Table 39, read-out: GTP binding hDOR EC50), 50.2 nM; in [6] (read-out: EC50, hDOR, [35S]GTP-γ-S binding) it was 50.2 nM. Moreover, the Emax in assay [1] (Table 27, read-out: GTP binding rMOR Emax (%)) was 35.9%; in assay [1] (Table 39, read-out: GTP binding rMOR Emax) it was 35.9%; in [1] (net total bound/basal binding × 100, read-out: Emax, rMOR, [35S]GTP-γ-S binding), 39%; in assay [6] (Table 27, read-out: GTP binding hDOR Emax (%)) it was 33.6%; in assay [6] (Table 39, read-out: GTP binding hDOR Emax), 33.6%; in assay [6] (net total bound/basal binding × 100, read-out: Emax, hDOR, [35S]GTP-γ-S binding), 35%. Further, the Kb in [2] (Substance P antagonist, GPI, Ke, in the presence of 1 μM naloxone) turned out to be 5.4 ± 1.4 nM. For the same molecule, in assay [2] (read-out: Substance P GPI agonist (A50), at 1 μM, contraction relative to initial muscle contraction with KCl), the activation at 1 µM is 0%. Moreover, the Ki in [3] (Table 27, read-out: Affinity rMOR (Ki; nM)) stood at 27 nM; in assay [3] (Table 39, read-out: Affinity rMOR (Ki; nM)), 27 nM; in assay [3] (read-out: Ki, rMOR, [3H]DAMGO), 27 nM; in assay [4] (Table 27, read-out: Affinity hDOR (Ki; nM)), 36.1 nM; in [4] (Table 39, read-out: Affinity hDOR (Ki; nM)), 36.1 nM; in assay [4] (read-out: Ki, hDOR, [3H]DPDPE), 36.1 nM. In addition, the Ki in [5] is 0.016 nM. The “LogIC50, rMOR, [3H]DAMGO” value in assay [3] (membranes from transfected HN9.10 cells) was −7.24 ± 0.15. In addition, in assay [6], the “LogEC50, hDOR, [35S]GTP-γ-S binding” value is recorded as −7.30 ± 0.24.

Usually EC50 stands for the concentration that produces a half-maximal response. The Ki is the dissociation constant of the complex between target and ligand, obtained from inhibition or displacement. A word on the Kb: it is the affinity of an antagonist, worked out from how it opposes an agonist. For orientation: Emax means the size of the effect at its maximum, as opposed to the concentration needed.
